Test results taken from ChEMBL document CHEMBL1150577, “Inhibition of glucose and dehydroascorbic acid uptakes by resveratrol in human transformed myelocytic cells” (J Nat Prod, 2001).
Activity calls are given as the source filed them.

Legend:
U-937 [1] = assay: Inhibition of 2-[1,2-3H(N)]deoxy-D-glucose uptake in human U937 cells by Michaelis-Menten plot; type: functional, cell-based
[2] = target: T1, Solute carrier family 2, facilitated glucose transporter member 1 (Rattus norvegicus) (UniProt P11167); assay: Blockade of rat Glut1 expressed in CHO cells assessed as inhibition of [14C]dehydroascorbic acid uptake by scintillation spectrometry; type: cell-based
T1 sequence (whole entry): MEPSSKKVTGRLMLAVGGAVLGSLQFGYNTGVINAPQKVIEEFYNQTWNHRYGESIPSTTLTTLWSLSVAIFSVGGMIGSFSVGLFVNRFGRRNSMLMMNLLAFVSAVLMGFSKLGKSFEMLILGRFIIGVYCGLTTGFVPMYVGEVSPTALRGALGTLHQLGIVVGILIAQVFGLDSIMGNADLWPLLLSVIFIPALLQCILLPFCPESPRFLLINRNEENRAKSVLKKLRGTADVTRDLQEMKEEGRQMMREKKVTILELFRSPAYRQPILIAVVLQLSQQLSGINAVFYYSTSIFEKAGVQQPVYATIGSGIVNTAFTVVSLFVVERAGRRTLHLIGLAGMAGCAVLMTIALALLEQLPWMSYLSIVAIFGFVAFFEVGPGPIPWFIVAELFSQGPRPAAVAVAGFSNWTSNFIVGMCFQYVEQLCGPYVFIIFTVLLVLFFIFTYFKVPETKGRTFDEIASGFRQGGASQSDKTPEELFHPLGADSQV

U-937 [3] = assay: Inhibition of 2-[1,2-3H(N)]deoxy-D-glucose uptake in human U937 cells by scintillation spectrometry in presence of sodium-free buffer; type: functional, cell-based
HL-60 [4] = assay: Inhibition of [14C]dehydroascorbic acid uptake in human HL60 cells by scintillation spectrometry in presence of sodium-free buffer; type: functional, cell-based
U-937 [5] = assay: Inhibition of [14C]dehydroascorbic acid uptake in human U937 cells by Michaelis-Menten plot; type: functional, cell-based
HL-60 [6] = assay: Inhibition of 2-[1,2-3H(N)]deoxy-D-glucose uptake in human HL60 cells at >500 uM by scintillation spectrometry in presence of buffer containing NaCl and Na2HPO4; type: functional
HL-60 [7] = assay: Inhibition of 2-[1,2-3H(N)]deoxy-D-glucose uptake in human HL60 cells at 75 uM by scintillation spectrometry in presence of buffer containing NaCl and Na2HPO4; type: functional
[8] = target: T2, Solute carrier family 2, facilitated glucose transporter member 3 (Homo sapiens) (UniProt P11169); assay: Blockade of human Glut3 expressed in CHO cells assessed as inhibition of [14C]dehydroascorbic acid uptake by scintillation spectrometry; type: cell-based
T2 sequence (whole entry): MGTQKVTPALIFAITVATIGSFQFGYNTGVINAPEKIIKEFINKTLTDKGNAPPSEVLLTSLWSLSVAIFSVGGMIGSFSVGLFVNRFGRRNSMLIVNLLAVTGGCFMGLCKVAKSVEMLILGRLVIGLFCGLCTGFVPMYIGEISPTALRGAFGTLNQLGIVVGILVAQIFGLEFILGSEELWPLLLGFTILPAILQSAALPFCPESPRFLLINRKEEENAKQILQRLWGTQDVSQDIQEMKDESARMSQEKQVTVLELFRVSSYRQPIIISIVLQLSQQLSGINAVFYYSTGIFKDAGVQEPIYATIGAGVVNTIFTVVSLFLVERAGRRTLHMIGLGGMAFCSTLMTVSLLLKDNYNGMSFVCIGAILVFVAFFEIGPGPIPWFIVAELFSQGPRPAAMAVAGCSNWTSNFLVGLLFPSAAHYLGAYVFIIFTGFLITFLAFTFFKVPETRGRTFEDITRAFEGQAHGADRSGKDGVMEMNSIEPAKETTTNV

U-937 [9] = assay: Inhibition of [14C]dehydroascorbic acid uptake in human U937 cells by scintillation spectrometry in presence of buffer containing NaCl and Na2HPO4; type: functional, cell-based
HL-60 [10] = assay: Inhibition of 2-[1,2-3H(N)]deoxy-D-glucose uptake in human HL60 cells at >100 uM by scintillation spectrometry in presence of sodium-free buffer; type: functional
U-937 [11] = assay: Inhibition of [14C]dehydroascorbic acid uptake in human U937 cells at 38 uM by scintillation spectrometry in presence of buffer containing NaCl and Na2HPO4; type: functional
U-937 [12] = assay: Inhibition of 2-[1,2-3H(N)]deoxy-D-glucose uptake in human U937 cells at >100 uM by scintillation spectrometry in presence of sodium-free buffer; type: functional
HL-60 [13] = assay: Inhibition of [14C]dehydroascorbic acid uptake in human HL60 cells by scintillation spectrometry in presence of buffer containing NaCl and Na2HPO4; type: functional, cell-based
HL-60 [14] = assay: Inhibition of 2-[1,2-3H(N)]deoxy-D-glucose uptake in human HL60 cells by scintillation spectrometry in presence of sodium-free buffer; type: functional, cell-based
HL-60 [15] = assay: Inhibition of [14C]dehydroascorbic acid uptake in human HL60 cells at 32 uM by scintillation spectrometry in presence of buffer containing NaCl and Na2HPO4; type: functional
U-937 [16] = assay: Inhibition of [14C]dehydroascorbic acid uptake in human U937 cells by scintillation spectrometry in presence of sodium-free buffer; type: functional, cell-based
U-937 [17] = assay: Inhibition of 2-[1,2-3H(N)]deoxy-D-glucose uptake in human U937 cells at 73 uM by scintillation spectrometry in presence of buffer containing NaCl and Na2HPO4; type: functional
[18] = target: T2, Solute carrier family 2, facilitated glucose transporter member 3 (Homo sapiens); assay: Blockade of human Glut3 expressed in CHO cells assessed as inhibition of 2-[1,2-3H(N)]deoxy-D-glucose uptake by scintillation spectrometry; type: cell-based
[19] = target: T1, Solute carrier family 2, facilitated glucose transporter member 1 (Rattus norvegicus); assay: Blockade of rat Glut1 expressed in CHO cells assessed as inhibition of 2-[1,2-3H(N)]deoxy-D-glucose uptake by scintillation spectrometry; type: cell-based
HL-60 [20] = assay: Inhibition of 2-[1,2-3H(N)]deoxy-D-glucose uptake in human HL60 cells by Michaelis-Menten plot; type: functional, cell-based
U-937 [21] = assay: Inhibition of 2-[1,2-3H(N)]deoxy-D-glucose uptake in human U937 cells at >500 uM by scintillation spectrometry in presence of buffer containing NaCl and Na2HPO4; type: functional

Oc1ccc(/C=C/c2cc(O)cc(O)c2)cc1 [RESVERATROL]
20%: inhibition (INH) (HL-60 [6]) | inhibition (INH) (U-937 [21])
50%: inhibition at 75 µM (HL-60 [7]) | inhibition at 38 µM (U-937 [11]) | inhibition at 32 µM (HL-60 [15]) | inhibition at 73 µM (U-937 [17])
active: Activity [2] | Activity (U-937 [3]) | Activity (HL-60 [4]) | Activity [8] | Activity (U-937 [9]) Dose-dependent effect | Activity (HL-60 [13]) Dose-dependent effect | Activity (HL-60 [14]) | Activity (U-937 [16]) | Activity [18] | Activity [19]
35 µM: Ki (U-937 [5])
85 µM: Ki (HL-60 [20])
10%: inhibition (INH) (HL-60 [10]) | inhibition (INH) (U-937 [12])
89 µM: Ki (U-937 [1])
